Four compounds from patent US11504362B2, “Liquid dosage forms to treat cancer” (Exelixis, Inc., priority 2017, dated 2022) can be followed below.

The term Tmax denotes the time at which the peak concentration occurs.

Where a name gives a salt, the structure may show the parent alone.

Data set [1] can be described thus: clinical. The conditions noted are these: in vivo. As for the experimental part: Pharmacokinetics: Serial blood, urine, and feces were collected at specified times following dosing.
All samples collected for radioactivity analysis were analyzed for total radioactivity.
Detailed reports of the bioanalytical methodologies and results accompany the clinical study report.
The other minor metabolite in plasma, p-Fluoroaniline, was analyzed by Exelixis using a validated LC/MS/MS method.
PK variables were computed using WinNonlin Professional, version 5.2.

A short description of data set [2]: clinical. Conditions: in vivo. As for the experimental part:
Samples for 2 subjects were used for the investigation study. Therefore, only 6 subjects' PK profiles were determined using a radio-quantitation method.
This is another data set of the same source.

As for `COc1cc2nccc(Oc3ccc(NC(=O)C4(C(=O)O)CC4)cc3)c2cc1OS(=O)(=O)O` [6-Demethyl Half-Dimer Sulfate], in “clinical [1]” (human), the AUC0-24 is given as 951 ± 377 (40) h · ng/mL, the AUC0-72 is given as 7530 ± 3200 (42) h · ng/mL and the AUC0-t is listed as 99500 ± 34500 (35) h · ng/mL. In “clinical [2]” (human), the AUC0-24 is recorded as 2520 ± 1370 h · ngEq/mL, the AUC0-72 worked out at 17400 ± 7000 h · ngEq/mL, the AUC0-t is 89000 ± 32000 h · ngEq/mL and the Tmax is given as ~71.99 h.

With `COc1cc2nccc(Oc3ccc(NC(=O)C4(C(=O)O)CC4)cc3)c2cc1OC` [XL184-Half-Dimer], in “clinical [1]” (human), the AUC0-24 is on record as 1080 ± 341 (32) h · ng/mL, the AUC0-72 is recorded as 3120 ± 976 (31) h · ng/mL, the AUC0-inf was 6770 ± 1700 (25) h · ng/mL and the AUC0-t was 6540 ± 1680 (26) h · ng/mL. Also, in “clinical [1]” (human), the t1/2 stood at 91.8 h. This compound showed a kel in the data set “clinical [1]” of 0.00807 h⁻¹. In “clinical [2]” (human), this compound returned an AUC0-24 of 3610 ± 1350 h · ngEq/mL, an AUC0-72 of 8680 ± 3980 h · ngEq/mL, an AUC0-inf of 16400 ± 1770 h · ngEq/mL and an AUC0-t of 11100 ± 5890 h · ngEq/mL. In the data set “clinical [2]” (human), the Cmax came to 210 ± 73 ngEq/mL, the Tmax is given as 1.49 h and the t1/2 was 57.9 ± 28.4 h. Also, the ke1 in “clinical [2]” turned out to be 0.0136 ± 0.00672 h⁻¹.

Take `COc1cc2c(Oc3ccc(NC(=O)C4(C(=O)Nc5ccc(F)cc5)CC4)cc3)cc[n+]([O-])c2cc1OC` [XL184-N-Oxide]: in “clinical [1]” (human), the AUC0-24 is on record as 2030 ± 682 (34) h · ng/mL, the AUC0-72 was 5610 ± 1940 (35) h · ng/mL, the AUC0-inf is on record as 10300 ± 3170 (31) h · ng/mL and the AUC0-t is given as 10100 ± 3210 (32) h · ng/mL. For the same compound, the t1/2 in the data set “clinical [1]” (human) is 89.2 h. Further, the kel in “clinical [1]” worked out at 0.00846 h⁻¹. In the data set “clinical [2]” (human), the AUC0-24 came to 4300 ± 1460 h · ngEq/mL, the AUC0-72 is recorded as 10600 ± 3490 h · ngEq/mL, the AUC0-inf stood at 20800 ± 7640 h · ngEq/mL and the AUC0-t was 13300 ± 8360 h · ngEq/mL. The t1/2 in the data set “clinical [2]” (human) was 73.1 h. This compound came in with a ke1 in the data set “clinical [2]” of 0.00976 ± 0.00212 h⁻¹.

With `Nc1ccc(F)cc1` [p-Fluoroaniline, Para-fluoroaniline], the Plasma concentrations in “clinical [1]” (male, human) is listed as < 2.0 ng/mL.
